This is an account of results in patent publication US11382924B2, “Compounds and pharmaceutical uses thereof” (priority 2020, dated 2022).

Molecules are shown by their SMILES. Where “and” joins values, the source holds several entries; their conditions need not be identical. Equal values may be shown once. Read-outs that look alike come from different tables or passages of the source.

Data set [1] deals with human D-amino acid oxidase (Homo sapiens, UniProt P14920). The experiment in a line: Inhibition of human D-amino acid oxidase. It counts as biochemical. Particulars: read-out: IC50 for inhibiting human D-amino acid oxidase.
The target in data set [2] is 2019-nCoV 3CLPro (Severe acute respiratory syndrome coronavirus 2, UniProt P0DTD1). The data set can be described thus: 2019-nCoV 3CLPro fluorogenic protease activity assay at 3 μM (35 nM protease, pH 7.0). The class given is biochemical. Particulars: for remaining activity at 3 µM / Residual Protease Activity (%) 3 μM: 3 μM sample; for remaining activity at 3 µM: read-out: Residual Protease Activity (%) 3 μM.

The target in data set [3] is T1, SARS-CoV-2 3CLPro (Severe acute respiratory syndrome coronavirus 2, UniProt P0DTD1). The data set can be described thus: Native-PAGE mobility shift binding with 3CLPro. The following applies: 62.5-1000 μM sample mixed with 40 μM 3CLPro, 4° C., 3 hours.
Data set [4] relates to SARS-CoV-2. Particulars: Choy et al., 2020; qRT-PCR, supernatant; MOI = 0.02; cited from earlier work. For orientation: Quantitative PCR measures a nucleic acid by following its amplification.
The target of data set [5] is T1, SARS-CoV-2 3CLPro. The experiment in a line: biochemical.
Data set [6] relates to SARS-CoV-2. The experiment in a line: SARS-CoV-2 virucidal assay in Vero E6 cells (qPCR of RdRP gene). The class given is cell-based. The following applies: MOI 0.01, 24 h.
For data set [7] the following is noted: 2020, cited from earlier work.
For data set [8], the target named is T2, SARS-CoV-2 viral 3CL protease (Severe acute respiratory syndrome coronavirus 2, UniProt P0DTD1). The experiment in a line: 3CL protease activity assay, concentration series of SNB01 (IC50). The class given is biochemical.
Data set [9] addresses T2, SARS-CoV-2 viral 3CL protease. The experiment in a line: biochemical. Particulars: read-out: Residual Protease Activity (%) 1 μM.
Where [10] appears, read: IC50, Table 34, final DMSO concentration 0.05%.
The mark [11] stands for this setting: Table 34, final DMSO concentration 0.05%, read-out: IC50 (converted).
[12] abbreviates: Table 34, final DMSO concentration 0.40%, read-out: IC50 (converted).
[13] abbreviates: 50% inhibition concentration (IC50) against SARS-CoV-2 3CLPro, samples of Table 34, 50 nM protease, 6 μM substrate.

The term IC50 denotes the point on the concentration scale where inhibition reaches its midpoint. A word on the inhibition: it is the drop in the measured response relative to a control, in per cent. One may read the EC50 as the midpoint of the concentration-response curve.

Sequence of human D-amino acid oxidase (P14920 whole entry): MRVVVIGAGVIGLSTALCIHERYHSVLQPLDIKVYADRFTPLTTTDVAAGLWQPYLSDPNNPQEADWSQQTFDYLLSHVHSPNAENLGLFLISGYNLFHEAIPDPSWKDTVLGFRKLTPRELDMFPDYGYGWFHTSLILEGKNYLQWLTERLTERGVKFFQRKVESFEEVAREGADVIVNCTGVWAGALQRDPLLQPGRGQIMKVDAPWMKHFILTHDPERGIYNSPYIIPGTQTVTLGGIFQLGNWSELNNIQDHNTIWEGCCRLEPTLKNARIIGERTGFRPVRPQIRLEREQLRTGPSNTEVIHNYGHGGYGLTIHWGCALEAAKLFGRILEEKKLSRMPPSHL

Consider `O=C(O)c1cc(O)c(O)c(OC(=O)c2cc(O)c(O)c(OC(=O)c3cc(O)c(O)c(O)c3)c2)c1` [Compound 14], for which the IC50 in data set [1] worked out at 299 nM.
Turning to `O=C(O)c1cc(O)c(O)c(OC(=O)c2cc(O)c(O)c(OC(=O)c3cc(O)c(O)c(OC(=O)c4cc(O)c(O)c(OC(=O)c5cc(O)c(O)c(O)c5)c4)c3)c2)c1` [Compound 18], the remaining activity at 3 µM in data set [2] was 56%. Moreover, the inhibition at 3 µM in data set [2] (3 μM, read-out: inhibition activity against 2019-nCoV 3CLpro) was determined as 44%. In data set [1], the IC50 amounted to 121 nM.
In the case of `O=C(O)c1cc(O)c(O)c(O)c1` [GA, gallic acid, reference compound], the “binding to 3CLPro by native-PAGE mobility shift” value in data set [3] is recorded as “no significant binding”.
As for `Cc1cccc(C)c1OCC(=O)N[C@@H](Cc1ccccc1)[C@@H](O)C[C@H](Cc1ccccc1)NC(=O)[C@H](C(C)C)N1CCCNC1=O` [Lopinavir], in [4], the EC50 was 26100 nM and the “Therapeutic Index (CC50/EC50)” value was 1.906.
Regarding `O=C(Oc1cc(OC(=O)c2cc(O)c(O)c(OC(=O)c3cc(O)c(O)c(OC(=O)c4cc(O)c(O)c(O)c4)c3)c2)cc(OC(=O)c2cc(O)c(O)c(OC(=O)c3cc(O)c(O)c(OC(=O)c4cc(O)c(O)c(O)c4)c3)c2)c1)c1cc(O)c(O)c(OC(=O)c2cc(O)c(O)c(OC(=O)c3cc(O)c(O)c(O)c3)c2)c1` [Phloroglucinol 9G], the IC50 in data set [5] (setting [10]) and in [5] (setting [11]) was 1450 nM in each case.
In the case of `O=C(Oc1cc(OC(=O)c2cc(O)c(O)c(OC(=O)c3cc(O)c(O)c(OC(=O)c4cc(O)c(O)c(OC(=O)c5cc(O)c(O)c(OC(=O)c6cc(O)c(O)c(O)c6)c5)c4)c3)c2)cc(OC(=O)c2cc(O)c(O)c(OC(=O)c3cc(O)c(O)c(OC(=O)c4cc(O)c(O)c(OC(=O)c5cc(O)c(O)c(OC(=O)c6cc(O)c(O)c(O)c6)c5)c4)c3)c2)c1)c1cc(O)c(O)c(OC(=O)c2cc(O)c(O)c(OC(=O)c3cc(O)c(O)c(OC(=O)c4cc(O)c(O)c(OC(=O)c5cc(O)c(O)c(O)c5)c4)c3)c2)c1` [Phloroglucinol 15G], in [5] (setting [12]), the IC50 is 934 nM.
Regarding `CCC(CC)COC(=O)[C@H](C)N[P@](=O)(OC[C@H]1O[C@@](C#N)(c2ccc3c(N)ncnn23)[C@H](O)[C@@H]1O)Oc1ccccc1` [Remdesivir], the “EC99 against SARS-CoV-2 infection” value was 15 µM and 15.000 µM in data set [6] (Vero E6, cell layer); 15 µM and 15.000 µM in data set [6] (Vero E6, supernatant). Further, the CC50 in data set [7] (Choy et al.) is above 100000 nM; in data set [7] (Jeon et al.) it was above 25000 nM; in data set [7] (Pruijssers et al.), above 10000 nM; in data set [7] (Runfeng et al.) it was 111000 nM; in data set [7] (Wang et al.) it was above 100000 nM.
As for `O=C(OC[C@H]1O[C@@H](OC(=O)c2cc(O)c(O)c(OC(=O)c3cc(O)c(O)c(O)c3)c2)[C@H](OC(=O)c2cc(O)c(O)c(OC(=O)c3cc(O)c(O)c(O)c3)c2)[C@@H](OC(=O)c2cc(O)c(O)c(OC(=O)c3cc(O)c(O)c(O)c3)c2)[C@@H]1OC(=O)c1cc(O)c(O)c(OC(=O)c2cc(O)c(O)c(O)c2)c1)c1cc(O)c(O)c(OC(=O)c2cc(O)c(O)c(O)c2)c1` [SNB01], in [8], the IC50 was around 474 nM.
As to `O=C(OC[C@H]1O[C@H](OC(=O)c2cc(O)c(O)c(O)c2)[C@H](OC(=O)c2cc(O)c(O)c(O)c2)[C@@H](OC(=O)c2cc(O)c(O)c(O)c2)[C@@H]1OC(=O)c1cc(O)c(O)c(O)c1)c1cc(O)c(O)c(O)c1` [Sample 1], in data set [2], the remaining activity at 3 µM turned out to be 52%.
As to `O=C(OC[C@H]1O[C@@H](OC(=O)c2cc(O)c(O)c(O)c2)[C@H](OC(=O)c2cc(O)c(O)c(O)c2)[C@@H](OC(=O)c2cc(O)c(O)c(O)c2)[C@@H]1OC(=O)c1cc(O)c(O)c(O)c1)c1cc(O)c(O)c(O)c1` [Sample 2, (2S,3R,4S,5R,6R)-3,4,5-tris(3,4,5-trihydroxybenzoyloxy)-6-((3,4,5-trihydroxybenzoyloxy)methyl)oxan-2-yl 3,4,5-trihydroxybenzoate], in data set [2], the remaining activity at 3 µM worked out at 55%. The remaining activity at 1 µM in [9] turned out to be 57%.
Take `O=C(OC[C@H]1O[C@H](OC(=O)c2cc(O)c(O)c(OC(=O)c3cc(O)c(O)c(O)c3)c2)[C@H](OC(=O)c2cc(O)c(O)c(OC(=O)c3cc(O)c(O)c(O)c3)c2)[C@@H](OC(=O)c2cc(O)c(O)c(OC(=O)c3cc(O)c(O)c(O)c3)c2)[C@@H]1OC(=O)c1cc(O)c(O)c(OC(=O)c2cc(O)c(O)c(O)c2)c1)c1cc(O)c(O)c(OC(=O)c2cc(O)c(O)c(O)c2)c1` [Sample 3]: the “Residual Protease Activity (%) 3 μM” value in data set [2] is reported as −2%. Moreover, the remaining activity at 1 µM in [9] (1 μM sample) stood at 39%. Also, the IC50 is below 882 nM in data set [5] (setting [13]); 666 nM and 665 nM in data set [5] (setting [10]).
As for `O=C(OC[C@H]1O[C@@H](OC(=O)c2cc(O)c(O)c(OC(=O)c3cc(O)c(O)c(O)c3)c2)[C@H](OC(=O)c2cc(O)c(O)c(OC(=O)c3cc(O)c(O)c(O)c3)c2)[C@@H](OC(=O)c2cc(O)c(O)c(OC(=O)c3cc(O)c(O)c(O)c3)c2)[C@@H]1OC(=O)c1cc(O)c(O)c(OC(=O)c2cc(O)c(O)c(O)c2)c1)c1cc(O)c(O)c(OC(=O)c2cc(O)c(O)c(O)c2)c1` [Sample 4, (2S,3R,4S,5R,6R)-3,4,5-tris(3,4-dihydroxy-5-(3,4,5-trihydroxybenzoyloxy)benzoyloxy)-6-((3,4-dihydroxy-5-(3,4,5-trihydroxybenzoyloxy)benzoyloxy)methyl)oxan-2-yl 3,4-dihydroxy-5-(3,4,5-trihydroxybenzoyloxy)benzoate], the “Residual Protease Activity (%) 3 μM” value in data set [2] was −9%. Also, the remaining activity at 1 µM in data set [9] (1 μM sample) stood at 43%. For the same molecule, the “binding to 3CLPro by native-PAGE mobility shift” value in data set [3] is listed as “significant binding”. Also, the results for the IC50 in [5] (setting [13]) and in data set [5] (setting [10]) were below 882 nM and 806 nM, respectively.
`O=C(OC[C@H]1O[C@@H](OC(=O)c2cc(O)c(O)c(OC(=O)c3cc(O)c(O)c(OC(=O)c4cc(O)c(O)c(O)c4)c3)c2)[C@H](OC(=O)c2cc(O)c(O)c(OC(=O)c3cc(O)c(O)c(OC(=O)c4cc(O)c(O)c(O)c4)c3)c2)[C@@H](OC(=O)c2cc(O)c(O)c(OC(=O)c3cc(O)c(O)c(OC(=O)c4cc(O)c(O)c(O)c4)c3)c2)[C@@H]1OC(=O)c1cc(O)c(O)c(OC(=O)c2cc(O)c(O)c(OC(=O)c3cc(O)c(O)c(O)c3)c2)c1)c1cc(O)c(O)c(OC(=O)c2cc(O)c(O)c(OC(=O)c3cc(O)c(O)c(O)c3)c2)c1` [Sample 6, (2S,3R,4S,5R,6R)-6-(((3-((3,4-dihydroxy-5-((3,4,5-trihydroxybenzoyl)oxy)benzoyl)oxy)-4,5-dihydroxybenzoyl)oxy)methyl)tetrahydro-2H-pyran-2,3,4,5-tetrayl tetrakis(3-((3,4-dihydroxy-5-((3,4,5-trihydroxybenzoyl)oxy)benzoyl)oxy)-4,5-dihydroxybenzoate)]: the remaining activity at 1 µM in [9] (1 μM sample) was 39%. Moreover, in [3], the “binding to 3CLPro by native-PAGE mobility shift” value is “significant binding”. For the same molecule, the IC50 is below 609 nM in data set [5] (setting [13]), 602 nM in data set [5] (setting [10]) and 602 nM in data set [5] (setting [11]).
As for `O=C(Oc1ccccc1)c1cc(O)c(O)c(OC(=O)c2cc(O)c(O)c(OC(=O)c3cc(O)c(O)c(O)c3)c2)c1` [phenol 3G], the IC50 in [5] (IC50, Table 34, final DMSO concentration 0.40%) was 6440 nM; in [5] (setting [12]), 6440 nM.
